Source: ChEMBL document CHEMBL4184276, “Curcumin inspired 2-chloro/phenoxy quinoline analogues: Synthesis and biological evaluation as potential anticancer agents” (Bioorg Med Chem Lett, 2018)

Columns and labels:
Format in all cases: functional, cell-based
NCI-H460 = assay: Cytotoxicity against human NCI-H460 cells assessed as reduction in cell viability after 48 hrs by MTT assay; details: NCI-H460, 48 h
HGC-27 = assay: Cytotoxicity against human HGC27 cells assessed as reduction in cell viability after 48 hrs by MTT assay; details: HGC-27, 48 h
PC-3 = assay: Cytotoxicity against human PC3 cells assessed as reduction in cell viability after 48 hrs by MTT assay; details: PC-3, 48 h
4T1 = assay: Cytotoxicity against mouse 4T1 cells assessed as reduction in cell viability after 48 hrs by MTT assay; details: 4T1, 48 h
DU-145 = assay: Cytotoxicity against human DU145 cells assessed as reduction in cell viability after 48 hrs by MTT assay; details: DU-145, 48 h
HeLa = assay: Cytotoxicity against human HeLa cells assessed as reduction in cell viability after 48 hrs by MTT assay

Measured: IC50

COc1cc(OC)c(OC)cc1/C=C/C(=O)/C=C/c1cc2ccccc2nc1Oc1cccc(Cl)c1
> 10 µM: NCI-H460 | HGC-27 | PC-3 | 4T1 | DU-145 | HeLa

COc1ccc(/C=C/C(=O)/C=C/c2cc3ccccc3nc2Cl)cc1
> 10 µM: NCI-H460 | HGC-27 | PC-3 | 4T1 | DU-145 | HeLa

COc1ccc(/C=C/C(=O)/C=C/c2cc3ccccc3nc2Oc2ccc(Br)cc2)cc1
> 10 µM: NCI-H460 | HGC-27 | PC-3 | 4T1 | DU-145 | HeLa

COc1ccc(/C=C/C(=O)/C=C/c2cc3ccccc3nc2Oc2ccc(Br)cc2)cc1OC
> 10 µM: NCI-H460 | HGC-27 | PC-3 | 4T1 | DU-145 | HeLa

COc1cc(OC)c(/C=C/C(=O)/C=C/c2cc3ccccc3nc2Cl)c(OC)c1
> 10 µM: NCI-H460 | HGC-27 | PC-3 | 4T1 | DU-145 | HeLa
